According to BigSolDB 2.1:

O=c1cc(-c2ccccc2)oc2cc(O)cc(O)c12
solubility (mole fraction)
Conditions | 293.15 K | 298.15 K | 303.15 K | 308.15 K | 313.15 K | 318.15 K | 323.15 K
in ethanol | 0.00689 | 0.00749 | 0.0078 | 0.00928 | 0.0108 | 0.0121 | 0.0137
in water | 1.26e-05 | 1.86e-05 | 2.38e-05 | 3.53e-05 | 4.61e-05 | 6.5e-05 | 0.0001
